This passage reports inhibition and IC50 results from ChEMBL document CHEMBL1141910, “Combinatorial approaches towards the discovery of new tryptase inhibitors” (Bioorg Med Chem Lett, 2005).

Test [1] concerns the target T1, Tryptase beta-1 (Homo sapiens, UniProt Q15661). As to the kind of experiment: Percentage inhibition against tryptase at 10 uM.
Target sequence in this assay (Q15661 31-275 limits assumed): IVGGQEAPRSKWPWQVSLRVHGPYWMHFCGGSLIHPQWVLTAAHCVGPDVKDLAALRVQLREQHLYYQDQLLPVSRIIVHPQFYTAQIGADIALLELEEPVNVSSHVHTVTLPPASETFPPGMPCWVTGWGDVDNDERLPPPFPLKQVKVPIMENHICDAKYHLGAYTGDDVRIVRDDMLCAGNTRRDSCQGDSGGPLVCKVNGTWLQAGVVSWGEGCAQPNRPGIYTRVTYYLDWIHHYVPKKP
Test [2] deals with T1, Tryptase beta-1. As to the kind of experiment: Inhibitory concentration against tryptase.
Target sequence in this assay (Q15661 whole entry): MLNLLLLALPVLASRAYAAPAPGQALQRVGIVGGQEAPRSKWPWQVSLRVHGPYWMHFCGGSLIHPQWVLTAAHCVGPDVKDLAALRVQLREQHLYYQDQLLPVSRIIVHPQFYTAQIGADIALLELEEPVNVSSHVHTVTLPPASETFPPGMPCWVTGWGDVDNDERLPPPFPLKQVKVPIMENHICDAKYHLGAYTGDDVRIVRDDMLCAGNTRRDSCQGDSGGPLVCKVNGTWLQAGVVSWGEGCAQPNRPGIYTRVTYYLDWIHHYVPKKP

As to `N=C(N)NCCCCC(=O)NCCCC[C@@H]1NC(=O)[C@H](CCCCNC(=O)[C@H](CCCNC(=N)N)NC(=O)c2ccccc2)NC1=O`, the inhibition on Tryptase beta-1 [1] turned out to be 47.5%. The same compound had a half-maximal inhibitory concentration (IC50) against Tryptase beta-1 [2] of 9.3 µM. Take `CN(CCC(=O)O)C(=N)N`: the inhibition against Tryptase beta-1 [1] is 2.55%. As to `N=C(N)Nc1ccc(C(=O)NCCCC[C@@H]2NC(=O)[C@H](CCCCNC(=O)CN3CCN=C3N)NC2=O)cc1`, the inhibition on Tryptase beta-1 [1] is 61.1%.

Take `CN(CCC(=O)NCCCC[C@@H]1NC(=O)[C@H](CCCCNC(=O)CCN=C(N)N)NC1=O)C(=N)N`: on Tryptase beta-1 [1], the inhibition stood at 51.7%. Same read-out and setting: the value for `N=C(N)NNC(=O)C[C@@H]1NC(=O)[C@H](CCCCNC(=O)c2ccc(NC(=N)N)cc2)NC1=O` was 42.5%. On the same count and under the same terms, the value for `N=C(N)Nc1ccc(C(=O)NCCCC[C@@H]2NC(=O)[C@H](CC(=O)Nc3cccc(C(=N)N)c3)NC2=O)cc1` was 47.3%; that for `N=C(N)NCCCCC(=O)O` was 0.23%. Consider `N=C(N)NCC(=O)NCCCC[C@@H]1NC(=O)[C@H](CC(=O)Nc2cccc(C(=N)N)c2)NC1=O`, for which the inhibition against Tryptase beta-1 [1] turned out to be 58.6%. This compound had an IC50 against Tryptase beta-1 [2] of 19.9 µM. Take `CN(CCC(=O)NCCCC[C@@H]1NC(=O)[C@H](CCCCNC(=O)CCCN=C(N)N)NC1=O)C(=N)N`: the inhibition at Tryptase beta-1 [1] is 36.7%. Turning to `NC(N)=Nc1ccc(C(=O)NCCCC[C@@H]2NC(=O)[C@H](CCCCNC(=O)CN3CCN=C3N)NC2=O)cc1`, inhibition against Tryptase beta-1 [2] was half-maximal at 4.4 µM (IC50). Consider `N=C(N)NCCCC(=O)NCCCC[C@@H]1NC(=O)[C@H](CC(=O)Nc2cccc(C(=N)N)c2)NC1=O`, for which the inhibition on Tryptase beta-1 [1] is 54.4%. Moreover, at Tryptase beta-1 [2], the concentration for half-maximal inhibition (IC50) is 21.3 µM.

Turning to `N=C(N)NCCC(=O)NCCCC[C@@H]1NC(=O)[C@H](CC(=O)Nc2cccc(C(=N)N)c2)NC1=O`, the inhibition on Tryptase beta-1 [1] came out at 76.5%. In addition, half-maximal inhibition against Tryptase beta-1 [2] (IC50) was put at 23.6 µM.

In the case of `N=C(N)NCCCC(=O)O`, the inhibition on Tryptase beta-1 [1] is 8.92%. On the same count and under the same terms, with `N=C(N)Nc1ccc(C(=O)NCCCC[C@@H]2NC(=O)[C@H](CC(=O)Nc3ccc(C(=N)N)cc3)NC2=O)cc1` the figure was 73.9%. Regarding `N=C(N)NCCCCC(=O)NCCCC[C@@H]1NC(=O)[C@H](CCCCNC(=O)[C@H](CCCNC(=N)N)NC(=O)OCc2ccccc2)NC1=O`, on Tryptase beta-1 [1], the inhibition came to 68%. The half-maximal inhibitory concentration (IC50) against Tryptase beta-1 [2] is 5.7 µM. Taken in the same sequence, the figures for `CN(CCC(=O)NCCCC[C@@H]1NC(=O)[C@H](CC(=O)Nc2cccc(C(=N)N)c2)NC1=O)C(=N)N` were 62.6% and 12.8 µM. On to `N=C(N)NCCCC(NC(=O)OCc1ccccc1)C(=O)O` (configuration not stated), for which the inhibition on Tryptase beta-1 [1] came out at 1.97%. The same measure, in the same setting: with `N=C(N)NCCC[C@H](NC(=O)OCc1ccccc1)C(=O)NCCCC[C@@H]1NC(=O)[C@H](CCCCNC(=O)[C@H](CCCN=C(N)N)NC(=O)c2ccccc2)NC1=O` the figure was 43.3%; with `N=C(N)Nc1ccc(C(=O)O)cc1`, 38.8%; with `N=C(N)NCCC[C@H](NC(=O)OCc1ccccc1)C(=O)NCCCC[C@@H]1NC(=O)[C@H](CC(=O)Nc2cccc(C(=N)N)c2)NC1=O`, 59%.

With `N=C(N)NCCCC(=O)NCCCC[C@@H]1NC(=O)[C@H](CCCCNC(=O)CCCNC(=N)N)NC1=O`, at Tryptase beta-1 [1], the inhibition was 59.3%. The compound further registered an IC50 against Tryptase beta-1 [2] of 4.7 µM. For `N=C(N)NCCC[C@H](NC(=O)c1ccccc1)C(=O)NCCCC[C@@H]1NC(=O)[C@H](CC(=O)Nc2cccc(C(=N)N)c2)NC1=O`, in that order: 70.6% and 12.4 µM. Consider `N=C(N)NCC(=O)O`, for which the inhibition at Tryptase beta-1 [1] is -3%.

Consider `NC1=NCCN1CC(=O)O`, for which the inhibition against Tryptase beta-1 [1] is 3.24%. Still for that read-out and setting: with `N=C(N)c1ccc(C(=O)O)cc1` the figure was 2.9%. Still for that read-out and setting: the value for `N=C(N)c1cccc(NC(=O)C[C@@H]2NC(=O)[C@H](CCCCNC(=O)CN3CCN=C3N)NC2=O)c1` was 47.7%. In the case of `N=C(N)NCCC[C@H](NC(=O)OCc1ccccc1)C(=O)NCCCC[C@@H]1NC(=O)[C@H](CCCCNC(=O)[C@H](CCCN=C(N)N)NC(=O)OCc2ccccc2)NC1=O`, the inhibition on Tryptase beta-1 [1] was 48.5%. Further, the IC50 against Tryptase beta-1 [2] amounted to 4.1 µM. As for `N=C(N)NCCCCC(=O)NCCCC[C@@H]1NC(=O)[C@H](CCCCNC(=O)CCCNC(=N)N)NC1=O`, at Tryptase beta-1 [1], the inhibition was found to be 44.4%.

As to `N=C(N)NCCC[C@H](NC(=O)c1ccccc1)C(=O)NCCCC[C@@H]1NC(=O)[C@H](CCCCNC(=O)CCNC(=N)N)NC1=O`, the inhibition on Tryptase beta-1 [1] was 31.2%. Still for that read-out and setting: with `N=C(N)NCCCC(NC(=O)c1ccccc1)C(=O)O` (configuration not stated) the figure was 7.53%; with `N=C(N)NCCCC(NC(=O)OCC1c2ccccc2-c2ccccc21)C(=O)NCCCC[C@@H]1NC(=O)[C@H](CC(=O)/N=C(\N)NNCCCc2ccccc2)NC1=O` (some centres not stated), 49.3%. Same read-out and setting: with `N=C(N)NCCC(=O)O` the figure was -6%; with `N=C(N)NCCCC(NC(=O)OCC1c2ccccc2-c2ccccc21)C(=O)NCCCC[C@@H]1NC(=O)[C@H](CC(=O)Nc2ccc(C(=N)N)cc2)NC1=O` (some centres not stated), 64.5%. For the compound `N=C(N)NCCCC(=O)NCCCC[C@@H]1NC(=O)[C@H](CCCCNC(=O)[C@H](CCCNC(=N)N)NC(=O)OCc2ccccc2)NC1=O`, the inhibition against Tryptase beta-1 [1] worked out at 83%. At Tryptase beta-1 [2], this compound showed an IC50 of 2.2 µM. As to `N=C(N)NCCC[C@H](NC(=O)OCc1ccccc1)C(=O)NCCCC[C@@H]1NC(=O)[C@H](CC(=O)Nc2ccc(C(=N)N)cc2)NC1=O`, the inhibition against Tryptase beta-1 [1] was 41.6%. Consider `N=C(N)NCCC[C@H](NC(=O)c1ccccc1)C(=O)NCCCC[C@@H]1NC(=O)[C@H](CC(=O)Nc2ccc(C(=N)N)cc2)NC1=O`, for which the inhibition at Tryptase beta-1 [1] came to 45%. `N=C(N)NCCCC(=O)NCCCC[C@@H]1NC(=O)[C@H](CCCCNC(=O)[C@H](CCCNC(=N)N)NC(=O)c2ccccc2)NC1=O`: the inhibition on Tryptase beta-1 [1] came out at 80.5%. Also, the half-inhibitory concentration (IC50) against Tryptase beta-1 [2] amounted to 2.4 µM. For `N=C(N)NCCCC(NC(=O)OCC1c2ccccc2-c2ccccc21)C(=O)NCCCC[C@@H]1NC(=O)[C@H](CC(=O)Nc2cccc(C(=N)N)c2)NC1=O` (some centres not stated), in that order: 62.6% and 9.09 µM. `CN(CCC(=O)NCCCC[C@@H]1NC(=O)[C@H](CCCCNC(=O)CCNC(=N)N)NC1=O)C(=N)N` showed an IC50 against Tryptase beta-1 [2] of 5.9 µM. With `N=C(N)NCCC[C@H](N)C(=O)O`, the inhibition at Tryptase beta-1 [1] was 3.71%.
